Results taken from US20120014956A1, “METHODS AND COMPOSITIONS FOR PREDICTING RESPONSIVENESS TO TREATMENT WITH TNF-ALPHA INHIBITOR” (priority 2010, published 2012).

Tests used:
patients with early RA [1] = experiment: OPTIMA genetic substudy: DAS28 low disease activity (<3.2) and remission (<2.6) at Week 26; format: in vivo, human
Text: (§1) The objective of the study was to prospectively analyze the association of 3 genetic risk factors (HLA-DRB1 shared epitope (SE), FcγRIIb, and IL-4R) for severe RA with clinical disease activity after 26 weeks of combination therapy with adalimumab (ADA) and methotrexate (MTX) or MTX monotherapy in a substudy of OPTIMA (A Multicentre, Randomized, Double Period, Double-Blind Study to Determine the Optimal Protocol for Treatment Initiation With Methotrexate and Adalimumab Combination Therapy in Patients With Early Rheumatoid Arthritis).
(§2) OPTIMA is an ongoing 78-week study with 26- and 52-week periods. Eligible patients had RA<1 year (1987-revised ACR classification), 28-joint Disease Activity Score (DAS28)>3.2, ≧6 swollen joints […], and ≧8 tender joints (SSJC66≧8). Patients had elevated erythrocyte sedimentation rate (ESR)≧28 mm/h or C-reactive protein (CRP)≧1.5 mg/dL and ≧1 of the following: >1 erosion, rheumatoid-factor positive (RF+), or anti-cyclic citrullinated peptide antibody positive (anti-CCP+). Exclusion criteria included prior exposure to systemic anti-TNF therapies, treatment with MTX or >2 disease-modifying anti-rheumatic drugs (DMARDs), other acute inflammatory joint diseases, or steroidal or surgical treatment within 4 weeks or 2 months, respectively.
(§3) In Period 2, those combination therapy responders, e.g., meeting DAS28 low disease activity (LDA) criteria (DAS28<3.2), were re-randomized 1:1 to remain on ADA+MTX or to “step down” to PBO+MTX for Weeks 26-78. In the initial PBO+MTX monotherapy group, subjects who achieved DAS28 LDA after Period 1 remained blinded on PBO+MTX for Period 2. […] Genetic data were associated with Week-26 clinical response.
(§4) For clinical assessment, the percentage of subjects achieving a 20%, 50%, and 70% improvement from baseline ACR scores was determined after Week 26 using a non-responder imputation approach. DAS28(CRP)^1 scores were evaluated at Week 26. The proportion of subjects achieving LDA (DAS28<3.2) and remission criteria (DAS28<2.6) was determined using a non-responder imputation approach.
(§5) For statistical analyses, Allele distribution between treatment groups was evaluated using the chi-square test, or Fisher's exact test in cases where data were sparse. The chi-square test was used to compare the proportion of subject achieving ACR20/50/70 and DAS28 LDA (<3.2) or remission (<2.6) within and between treatment groups.
(§6) MTX-naïve patients were randomized 1:1 to ADA (40 mg eow)+MTX (titrated to 20 mg/wk by Week 8) or placebo (PBO)+MTX for the first 26 weeks.
(§7) The percentage of subjects achieving a 50% improvement in the ACR score from baseline was determined at Week 26 using a non-responder imputation approach. The percentage of subjects achieving DAS28(CRP) remission (DAS28<2.6) was determined at Week 26 using a non-responder imputation approach.
(§8) Allele distribution between treatment groups was evaluated using the chi-square test, or Fisher's exact test in cases where data were sparse. Multivariate logistic regression was used to evaluate the effect of treatment, individual alleles, the interaction between treatment and genetic components, and baseline demographics and disease characteristics on clinical responses at 26 weeks.
(§9) MTX-naïve pts ≧18 years old with RA<1 year and active disease (DAS28>3.2, ESR≧28 mm/h or CRP≧1.5 mg/dL), and either >1 erosions, RF+, or anti-CCP+ were randomized to ADA+MTX (N=515) or PBO+MTX (N=517) for 26 wks. This analysis presents clinical outcomes at 26 weeks by HLA-DRB1 SE copy number (0×, 1×, or 2×), IL-4R I50V (AA, AG, or GG), and FcγRIIb I232T (TT, TC, CC) alleles. Non-responder imputation was used to calculate the percent of patients achieving ACR20/50/70 and DAS28 low disease activity (LDA, DAS28<3.2) and remission (DAS28<2.6). Multiple logistic regression was used to assess the influence of potential confounding baseline variables. […]

patients with early RA [2] = experiment: OPTIMA genetic substudy: ACR20/50/70 response at Week 26; format: in vivo, human; conditions: for ACR50, % / ACR50, n/N: 26 weeks; for ACR20 Response Rates at Week 26 (title; column head ACR70), % subjects / ACR20 Response Rates at Week 26 (title; column head ACR70), n/N subjects: Table 6a; for ACR20 Response Rates at Week 26 (title; column head ACR70), % subjects / ACR20 Response Rates at Week 26 (title; column head ACR70), n/N subjects / ACR50 response rate, % subjects / ACR50 response, n/N subjects / ACR70 response rate, % subjects / ACR70 response, n/N subjects / ACR20 response rate, % subjects / ACR20 response, n/N subjects: Week 26
Text: as §1, §2, §3, §4, §5, §6, §7, §8, §9

[3] = HLA-DRB1 SE 0 copies, non-responder imputation

CN(Cc1cnc2nc(N)nc(N)c2n1)c1ccc(C(=O)N[C@@H](CCC(=O)O)C(=O)O)cc1 [PBO + MTX, methotrexate]
LDA DAS28 <3.2, % subjects (patients with early RA [1]; HLA-DRB1 SE 0 copies): (30%)
LDA DAS28 <3.2, n/N subjects (patients with early RA [1]; HLA-DRB1 SE 0 copies): 49/167
Remission DAS28 <2.6, % subjects (patients with early RA [1]; HLA-DRB1 SE 0 copies): (17%)
Remission DAS28 <2.6, n/N subjects (patients with early RA [1]; HLA-DRB1 SE 0 copies): 28/167
LDA DAS28 <3.2, % subjects (patients with early RA [1]; HLA-DRB1 SE 1 copy): (23%)
LDA DAS28 <3.2, n/N subjects (patients with early RA [1]; HLA-DRB1 SE 1 copy): 50/215
Remission DAS28 <2.6, % subjects (patients with early RA [1]; HLA-DRB1 SE 1 copy): (16%)
Remission DAS28 <2.6, n/N subjects (patients with early RA [1]; HLA-DRB1 SE 1 copy): 35/215
LDA DAS28 <3.2, % subjects (patients with early RA [1]; HLA-DRB1 SE 2 copies): (24%)
LDA DAS28 <3.2, n/N subjects (patients with early RA [1]; HLA-DRB1 SE 2 copies): 16/69
Remission DAS28 <2.6, % subjects (patients with early RA [1]; HLA-DRB1 SE 2 copies): (16%)
Remission DAS28 <2.6, n/N subjects (patients with early RA [1]; HLA-DRB1 SE 2 copies): 11/69
LDA DAS28 <3.2, % subjects (patients with early RA [1]; IL-4R AA): (24%)
LDA DAS28 <3.2, n/N subjects (patients with early RA [1]; IL-4R AA): 31/130
Remission DAS28 <2.6, % subjects (patients with early RA [1]; IL-4R AA): (14%)
Remission DAS28 <2.6, n/N subjects (patients with early RA [1]; IL-4R AA): 18/130
LDA DAS28 <3.2, % subjects (patients with early RA [1]; IL-4R AG): (25%)
LDA DAS28 <3.2, n/N subjects (patients with early RA [1]; IL-4R AG): 58/233
Remission DAS28 <2.6, % subjects (patients with early RA [1]; IL-4R AG): (16%)
Remission DAS28 <2.6, n/N subjects (patients with early RA [1]; IL-4R AG): 37/233
LDA DAS28 <3.2, % subjects (patients with early RA [1]; IL-4R GG): (30%)
LDA DAS28 <3.2, n/N subjects (patients with early RA [1]; IL-4R GG): 26/88
Remission DAS28 <2.6, % subjects (patients with early RA [1]; IL-4R GG): (22%)
Remission DAS28 <2.6, n/N subjects (patients with early RA [1]; IL-4R GG): 19/88
ACR50, % (patients with early RA [2]; IL-4R AA, HLA-DRB1 SE copy # 0): (44%)
ACR50, n/N (patients with early RA [2]; IL-4R AA, HLA-DRB1 SE copy # 0): 15/34
ACR50, % (patients with early RA [2]; IL-4R AA, HLA-DRB1 SE copy # 1): (41%)
ACR50, n/N (patients with early RA [2]; IL-4R AA, HLA-DRB1 SE copy # 1): 23/56
ACR50, % (patients with early RA [2]; IL-4R AA, HLA-DRB1 SE copy # 2): (30%)
ACR50, n/N (patients with early RA [2]; IL-4R AA, HLA-DRB1 SE copy # 2): 7/23
ACR50, % (patients with early RA [2]; IL-4R AG, HLA-DRB1 SE copy # 0): (42%)
ACR50, n/N (patients with early RA [2]; IL-4R AG, HLA-DRB1 SE copy # 0): 33/78
ACR50, % (patients with early RA [2]; IL-4R AG, HLA-DRB1 SE copy # 1): (37%)
ACR50, n/N (patients with early RA [2]; IL-4R AG, HLA-DRB1 SE copy # 1): 34/92
ACR50, % (patients with early RA [2]; IL-4R AG, HLA-DRB1 SE copy # 2): (38%)
ACR50, n/N (patients with early RA [2]; IL-4R AG, HLA-DRB1 SE copy # 2): 12/32
ACR50, % (patients with early RA [2]; IL-4R GG, HLA-DRB1 SE copy # 0): (47%)
ACR50, n/N (patients with early RA [2]; IL-4R GG, HLA-DRB1 SE copy # 0): 18/38
ACR50, % (patients with early RA [2]; IL-4R GG, HLA-DRB1 SE copy # 1): (40%)
ACR50, n/N (patients with early RA [2]; IL-4R GG, HLA-DRB1 SE copy # 1): 14/35
ACR50, % (patients with early RA [2]; IL-4R GG, HLA-DRB1 SE copy # 2): (50%)
ACR50, n/N (patients with early RA [2]; IL-4R GG, HLA-DRB1 SE copy # 2): 1/2
association of FcγRIIb with 26-week response, multiple logistic regression (patients with early RA [2]; ADA+MTX: FcγRIIb-CC with ACR70 and DAS28 remission): failed to show a significant association
association of IL-4R with 26-week response, multiple logistic regression (patients with early RA [2]; IL-4R alone): failed to show a significant association
association of SE copy number with 26-week response, multiple logistic regression (patients with early RA [2]; PBO+MTX: ACR20 and ACR50, ADA+MTX: ACR20/50/70 and DAS28 LDA): significant negative effect
ACR20 Response Rates at Week 26 (title; column head ACR70), % subjects (patients with early RA [2]; IL-4R AA): (13%)
ACR20 Response Rates at Week 26 (title; column head ACR70), n/N subjects (patients with early RA [2]; IL-4R AA): 17/130
ACR20 Response Rates at Week 26 (title; column head ACR70), % subjects (patients with early RA [2]; IL-4R AG): (19%)
ACR20 Response Rates at Week 26 (title; column head ACR70), n/N subjects (patients with early RA [2]; IL-4R AG): 42/233
ACR20 Response Rates at Week 26 (title; column head ACR70), % subjects (patients with early RA [2]; IL-4R GG): (18%)
ACR20 Response Rates at Week 26 (title; column head ACR70), n/N subjects (patients with early RA [2]; IL-4R GG): 16/88
ACR50 response rate, % subjects (patients with early RA [2]; HLA-DRB1 SE 0 copies): (40%)
ACR50 response, n/N subjects (patients with early RA [2]; HLA-DRB1 SE 0 copies): 66/167
ACR70 response rate, % subjects (patients with early RA [2]; HLA-DRB1 SE 0 copies): (19%)
ACR70 response, n/N subjects (patients with early RA [2]; HLA-DRB1 SE 0 copies): 31/157
ACR50 response rate, % subjects (patients with early RA [2]; HLA-DRB1 SE 0 copies, listed as MTX): 40%
ACR20 response rate, % subjects (patients with early RA [2]; [3]): (63%)
ACR20 response, n/N subjects (patients with early RA [2]; [3]): 105/167
ACR20 response rate, % subjects (patients with early RA [2]; HLA-DRB1 SE 1 copy): (54%)
ACR20 response, n/N subjects (patients with early RA [2]; HLA-DRB1 SE 1 copy): 115/215
ACR50 response rate, % subjects (patients with early RA [2]; HLA-DRB1 SE 1 copy): (33%)
ACR50 response, n/N subjects (patients with early RA [2]; HLA-DRB1 SE 1 copy): 71/215
ACR70 response rate, % subjects (patients with early RA [2]; HLA-DRB1 SE 1 copy): (17%)
ACR70 response, n/N subjects (patients with early RA [2]; HLA-DRB1 SE 1 copy): 36/215
ACR50 response rate, % subjects (patients with early RA [2]; HLA-DRB1 SE 1 copy, listed as MTX): 33%
ACR20 response rate, % subjects (patients with early RA [2]; HLA-DRB1 SE 2 copies): (52%)
ACR20 response, n/N subjects (patients with early RA [2]; HLA-DRB1 SE 2 copies): 36/69
ACR50 response rate, % subjects (patients with early RA [2]; HLA-DRB1 SE 2 copies): (29%)
ACR50 response, n/N subjects (patients with early RA [2]; HLA-DRB1 SE 2 copies): 20/69
ACR70 response rate, % subjects (patients with early RA [2]; HLA-DRB1 SE 2 copies): (13%)
ACR70 response, n/N subjects (patients with early RA [2]; HLA-DRB1 SE 2 copies): 9/69
ACR50 response rate, % subjects (patients with early RA [2]; HLA-DRB1 SE 2 copies, listed as MTX): 29%
ACR50 response rate, % subjects (patients with early RA [2]; IL-4R AA): (35%)
ACR50 response, n/N subjects (patients with early RA [2]; IL-4R AA): 45/130
ACR70 response rate, % subjects (patients with early RA [2]; IL-4R AA): (13%)
ACR70 response, n/N subjects (patients with early RA [2]; IL-4R AA): 17/130
ACR50 response rate, % subjects (patients with early RA [2]; IL-4R AG): (34%)
ACR50 response, n/N subjects (patients with early RA [2]; IL-4R AG): 79/233
ACR70 response rate, % subjects (patients with early RA [2]; IL-4R AG): (19%)
ACR70 response, n/N subjects (patients with early RA [2]; IL-4R AG): 42/233
ACR50 response rate, % subjects (patients with early RA [2]; IL-4R GG): (38%)
ACR50 response, n/N subjects (patients with early RA [2]; IL-4R GG): 33/88
ACR70 response rate, % subjects (patients with early RA [2]; IL-4R GG): (18%)
ACR70 response, n/N subjects (patients with early RA [2]; IL-4R GG): 16/88
